Earlier results, collected in patent publication US20220040193A1, “FORMULATIONS OF PHOSPHOINOSITIDE 3-KINASE INHIBITORS” (VENTHERA, INC., priority 2020, published 2022).

For `Oc1cccc(-c2nc(N3CCOCC3)c3sccc3n2)c1` [MTPP, 3-(4-morpholinothieno(3,2-d)pyrimidin-2-yl)phenol], the PI3K inhibiting activity (PI3K) is given as “excellent PI3K inhibiting activity” and the “cancer cell growth inhibiting activity” value (cancer cell) is given as “cancer cell growth inhibiting activity”.
